Measurements: US12018021B2 (UCB Biopharma SRL, priority 2018, dated 2024)

biological target: IgE-Tb / FcεRIα-Y131A-AF488 (Homo sapiens, UniProt P01854); assay: IgE-Tb / FcεRIα-Y131A-AF488 FRET assay (protocol for examples 1 to 233); format: binding; details: examples 1 to 233: 5 nM IgE-Tb, 25 nM FcεRIα-Y131A-AF488, incubated 2 hours at room temperature; read-out: Y131A FRET IC50 range
Procedure, shortened: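 Compounds (top final concentration usually 10 μM, 3-fold, 10 points, 2% DMSO) incubated 2 h at room temperature with IgE-Tb (5 nM) and FcεRIα-Y131A-AF488 (25 nM). Background from 200 nM unlabelled receptor subtracted; FRET ratio 520/495 nm after 330 nm excitation gave percent inhibition, fitted four-parameter for IC50.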

Chain of IgE-Tb / FcεRIα-Y131A-AF488 (P01854 1-427 limits assumed, stated change not applied): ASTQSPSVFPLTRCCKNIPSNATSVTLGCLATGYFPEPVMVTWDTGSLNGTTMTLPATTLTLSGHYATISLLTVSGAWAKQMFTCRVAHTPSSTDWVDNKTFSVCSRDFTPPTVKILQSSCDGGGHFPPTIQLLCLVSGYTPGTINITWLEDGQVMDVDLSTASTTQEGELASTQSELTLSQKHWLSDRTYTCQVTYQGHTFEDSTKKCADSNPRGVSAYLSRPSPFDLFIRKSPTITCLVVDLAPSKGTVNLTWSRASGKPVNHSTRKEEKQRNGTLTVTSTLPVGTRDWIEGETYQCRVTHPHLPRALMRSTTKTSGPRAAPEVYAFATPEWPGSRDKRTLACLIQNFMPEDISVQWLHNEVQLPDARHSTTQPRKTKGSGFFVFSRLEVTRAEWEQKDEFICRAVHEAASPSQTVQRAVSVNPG

Structure (SMILES)	IC50 [nM]
CC1Cc2c(sc(NC(=O)C3CC3)c2C(=O)NCC2CC2)C(C)C1 (centres unmarked) [Example 81, 2-(Cyclopropanecarbonylamino)-N-(cyclopropylmethyl)-5,7-dimethyl-4,5,6,7-tetrahydrobenzothiophene-3-carboxamide]	1000 to 10000
O=C(NCC1CC1)c1c(NC(=O)C2CC2)sc2c1CC(n1nncc1Nc1cccnc1)CC2 (centres unmarked) [Example 141, 2-(Cyclopropanecarbonylamino)-N-(cyclopropylmethyl)-5-[5-(3-pyridylamino)triazo-1-yl]-4,5,6,7-tetrahydrobenzothiophene-3-carboxamide]	< 1000
Cc1cc(Nc2nncn2C2CCc3sc(NC(=O)C4CC4)c(S(=O)(=O)NCC(C)C)c3C2)n(C)n1 (centres unmarked) [Example 167]	< 1000
CCCNC(=O)c1c(NC(=O)C2CC2)sc2c1CC(NC(=O)Nc1ccc(OC(F)(F)F)cc1)CC2 (centres unmarked) [Example 212, 2-(Cyclopropanecarbonylamino)-N-propyl-5-[[4-(trifluoromethoxy)phenyl]carbamoylamino]-4,5,6,7-tetrahydrobenzothiophene-3-carboxamide]	< 1000
O=C(NCC1CC1)c1c(NC(=O)C2CC2)sc2c1CC(C(=O)N1CCS(=O)(=O)CC1)CC2 (centres unmarked) [Example 56, 2-(Cyclopropanecarbonylamino)-N-(cyclopropylmethyl)-5-(1,1-dioxo-1,4-thiazinane-4-carbonyl)-4,5,6,7-tetrahydrobenzothiophene-3-carboxamide]	10000 to 50000
CC1CC(=O)c2sc(NC(=O)C3CC3)c(C(=O)NCC3CC3)c2C1 (centres unmarked) [Example 85, 2-(Cyclopropanecarbonylamino)-N-(cyclopropylmethyl)-5-methyl-7-oxo-5,6-dihydro-4H-benzothiophene-3-carboxamide]	1000 to 10000
Cc1cn(C)nc1Nc1nncn1[C@H]1CCc2sc(NC(=O)C3CC3)c(C(=O)NCC3CC3)c2C1 [Example 230, (5S)-2-(Cyclopropanecarbonylamino)-N-(cyclopropylmethyl)-5-[3-[(1,4-dimethylpyrazol-3-yl)amino]-1,2,4-triazol-4-yl]-4,5,6,7-tetrahydrobenzothiophene-3-carboxamide]	< 1000
O=C1NCc2cc(NC(=O)C3CCc4sc(NC(=O)C5CC5)c(S(=O)(=O)NCC5CC5)c4C3)ccc21 (centres unmarked) [Example 32, 2-(Cyclopropanecarbonylamino)-3-(cyclopropylmethylsulfamoyl)-N-(1-oxoisoindolin-5-yl)-4,5,6,7-tetrahydrobenzothiophene-5-carboxamide]	< 1000
O=C(NCC1CC1)c1c(NC(=O)C2CC2)sc2c1CC(Nc1nc[nH]n1)CC2 (centres unmarked) [Example 161, 2-(Cyclopropanecarbonylamino)-N-(cyclopropylmethyl)-5-(1H-1,2,4-triazol-3-ylamino)-4,5,6,7-tetrahydrobenzothiophene-3-carboxamide]	< 1000
COC(=O)CN1CCc2sc(NC(=O)C3CC3)c(C(=O)NCC3CC3)c2C1 [Example 12, Methyl 2-[2-(cyclopropanecarbonylamino)-3-(cyclopropylmethylcarbamoyl)-6,7-dihydro-4H-thieno[3,2-c]pyridin-5-yl]acetate]	10000 to 50000
COc1ccc(NC(=NC#N)NC2CCc3sc(NC(=O)C4CC4)c(C(=O)NCC4CC4)c3C2)cc1OC (centres unmarked) [Example 116, 5-[[N′-Cyano-N-(3,4-dimethoxyphenyl)carbamimidoyl]amino]-2-(cyclopropanecarbonylamino)-N-(cyclopropylmethyl)-4,5,6,7-tetrahydrobenzothiophene-3-carboxamide]	< 1000
O=C(OCC1CC1)c1c(NC(=O)C2CC2)sc2c1CC(NC(=S)Nc1cccnc1)CC2 (centres unmarked) [Example 93, Cyclopropylmethyl 2-(cyclopropanecarbonylamino)-5-(3-pyridylcarbamothioylamino)-4,5,6,7-tetrahydrobenzothiophene-3-carboxylate]	1000 to 10000
O=C(NCC1CC1)c1c(NC(=O)C2CC2)sc2c1CC(C(=O)Nc1ccc3nccnc3c1)CC2 (centres unmarked) [Example 49, 2-(Cyclopropanecarbonylamino)-N3-(cyclopropylmethyl)-N5-quinoxalin-6-yl-4,5,6,7-tetrahydrobenzothiophene-3,5-dicarboxamide]	< 1000
CCNc1nnc(C)n1C1CCc2sc(NC(=O)C3CC3)c(C(=O)NCC3CC3)c2C1 (centres unmarked) [Example 188, 2-(Cyclopropanecarbonylamino)-N-(cyclopropylmethyl)-5-[3-(ethylamino)-5-methyl-1,2,4-triazol-4-yl]-4,5,6,7-tetrahydrobenzothiophene-3-carboxamide]	< 1000
CC(C)CNS(=O)(=O)c1c(NC(=O)C2CC2)sc2c1CCCC2 [Example 17, N-[3-(Isobutylsulfamoyl)-4,5,6,7-tetrahydrobenzothiophen-2-yl]cyclopropanecarboxamide]	< 1000
O=C(NCC1CC1)c1c(NC(=O)C2CC2)sc2c1CC(C(=O)Nc1nccs1)CC2 (centres unmarked) [Example 50, 2-(Cyclopropanecarbonylamino)-N3-(cyclopropylmethyl)-N5-thiazol-2-yl-4,5,6,7-tetrahydrobenzothiophene-3,5-dicarboxamide]	< 1000
O=C(NCC1CC1)c1c(NC(=O)C2CC2)sc2c1CC(C(=O)Nc1ccc3[nH]ncc3c1)CC2 (centres unmarked) [Example 45, 2-(Cyclopropanecarbonylamino)-N3-(cyclopropylmethyl)-N5-(1H-indazol-5-yl)-4,5,6,7-tetrahydrobenzothiophene-3,5-dicarboxamide; 2,2,2-trifluoroacetic acid]	< 1000
Cc1ccc(NC2=NS(=O)(=O)N=C2NC2CCc3sc(NC(=O)C4CC4)c(C(=O)NCC4CC4)c3C2)cc1 (centres unmarked) [Example 169, 2-(Cyclopropanecarbonylamino)-N-(cyclopropylmethyl)-5-[[4-(4-methylanilino)-1,1-dioxo-1,2,5-thiadiazol-3-yl]amino]-4,5,6,7-tetrahydrobenzothiophene-3-carboxamide]	< 1000
CNC(=O)c1ncn([C@H]2CCc3sc(NC(=O)C4CC4)c(C(=O)NCC4CC4)c3C2)c1N [Example 153, 5-amino-1-[(5S)-2-cyclopropaneamido-3-[(cyclopropylmethyl)carbamoyl]-4,5,6,7-tetrahydro-1-benzothiophen-5-yl]-N-methyl-1H-imidazole-4-carboxamide]	< 1000
O=C(NCC1CC1)c1c(NC(=O)C2CC2)sc2c1C[C@@H](n1ccnc1Nc1cccnc1)CC2 [Example 127, (5S)-2-(Cyclopropanecarbonylamino)-N-(cyclopropylmethyl)-5-[2-(3-pyridylamino)imidazol-1-yl]-4,5,6,7-tetrahydrobenzothiophene-3-carboxamide]	< 1000
COc1ccccc1NC(=O)NC1CCc2sc(NC(=O)C3CC3)c(C(=O)NCC3CC3)c2C1 (centres unmarked) [Example 172, 2-(Cyclopropanecarbonylamino)-N-(cyclopropylmethyl)-5-[(2-methoxyphenyl)carbamoylamino]-4,5,6,7-tetrahydrobenzothiophene-3-carboxamide]	< 1000
O=C(Nc1sc2c(c1S(=O)(=O)NC1CC(F)C1)CCCC2)C1CC1 (centres unmarked) [Example 21, N-[3-[(3-Fluorocyclobutyl)sulfamoyl]-4,5,6,7-tetrahydrobenzothiophen-2-yl]cyclopropanecarboxamide]	< 1000
CS(=O)(=O)N1CCCc2c1sc(NC(=O)C1CC1)c2C(=O)NCC1CC1 [Example 6, 2-(Cyclopropanecarbonylamino)-N-(cyclopropylmethyl)-7-methylsulfonyl-5,6-dihydro-4H-thieno[2,3-b]pyridine-3-carboxamide]	1000 to 10000
